Measured values published in patent US20210251999A1, “Treatment of Conditions Associated With Decreased Folate in Cerebral Spinal Fluid” (priority 2011, published 2021).

Key:
Format in all cases: in vivo, human
[1] = Cerebrospinal folate level in a patient with cerebrospinal folate deficiency (case report, Example 2); settings: patient Example 2; folinic acid 5 mg twice per day; within approximately four months; rose from 32 L (preferred range 40-128)
Description: Example 1 was tested for cerebrospinal folate deficiency approximately four months after Example 2's testing. […] Studies have shown that the earlier the anemias associated with cerebrospinal folate deficiency are addressed, the better the adversely impacted individual can overcome more long-term effects of the associated folate deficiency.
After Example 2's diagnosis, Example 2 was placed on 5-methyltetrahydrofolate in the form of folinic acid (5 mg twice per day).

[2] = Clinical improvement of a patient with cerebrospinal folate deficiency (case report, Example 2); settings: patient Example 2; after 5-methyltetrahydrofolate treatment (folinic acid 5 mg twice per day)
Description: After Example 2's diagnosis, Example 2 was placed on 5-methyltetrahydrofolate in the form of folinic acid (5 mg twice per day). Within approximately four months, Example 2's cerebrospinal folate levels rose from 32 L (preferred range 40-128) to approximately 88 (above the midpoint of the range). […] Thus, reduced folates are critical.

[3] = Hematological response (reticulocytes) in a hypothyroid neonate after vitamin B12 supplementation (case report, Example 1); settings: patient Example 1 (neonate); additional nutritional supplement containing 2 mcg of vitamin B12
Excerpt: In another example: a patient (later referred to as Example 1, and also a twin of Example 2) suffered from clinical signs of cerebrospinal folate deficiency at birth. Example 1 received infant milk formula that contained vitamin B12. […] It is noted that the multivitamin nutritional supplement was Poly-Vi-Sol. Example 2 received a version of Poly-Vi-Sol that was fortified with iron, but that contained no vitamin B12. It is further noted that neither the version of Poly-Vi-Sol (without the iron fortification) nor the Poly-Vi-Sol (with iron fortification) contained any folate. Thus, the disclosed subject matter addresses the need for Poly-Vi-Sol, and other vitamin supplements that are given to neonates, infants and toddlers, to contain the methods and compositions described herein.
Both Example 1 and Example 2 were treated for iron deficiencies with iron supplements. Example 1 and Example 2 received different nutritional supplementation with respect to vitamin B 12. Although Example 2 did receive the same infant milk formula that Example 1 received, which infant milk formula contained vitamin B 12, Example 2 received less of the infant milk formula than Example 1, and Example 2 received in lieu of the infant milk formula more of the breast milk from the hypothyroid […]. […]

Nc1nc2c(c(=O)[nH]1)N(C=O)C(CNc1ccc(C(=O)N[C@@H](CCC(=O)O)C(=O)O)cc1)CN2 (stereo partly drawn) [folinic acid, 6(R,S)-5-formyltetrahydrofolate]
cerebrospinal folate levels [1]: approximately 88
physical, behavioral and social skills [2]: showed improvement in physical, behavioral and social skills

vitamin B 12
hematological response: reticulocytes [3]: increase in reticulocytes, moving from below normal to normal
